Source: PubChem BioAssay AID328 (DTP/NCI, 2004)
“And” between values parts separate entries of the source, which are not always exact repeats. Equal entries are not always repeated. Toxic doses and inconclusive results are not listed. Rule for the calls: active = survival T/C of 150% or more; inactive = T/C below 125% in these data.

System: BDF1 mice, P388 leukemia ip, median survival T/C
Assay: NCI In Vivo Anticancer Drug Screen. Data for tumor model P388 Leukemia (intraperitoneal) in B6D2F1 (BDF1) mice
Conditions: endpoint: median survival time, higher = longer survival
Outline: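 Mice carrying the transplantable tumour receive compound or vehicle. Survival is followed in each arm, and the treated measure is divided by the vehicle measure.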

[1] = dose: 100.0 mg/kg/injection, schedule: Q04DX003 (ip), vehicle: saline with Tween-80
[2] = dose: 200.0 mg/kg/injection, schedule: Q04DX003 (ip), vehicle: saline with Tween-80
[3] = dose: 400.0 mg/kg/injection, schedule: Q04DX003 (ip), vehicle: saline with Tween-80
[4] = dose: 100.0 mg/kg/injection, schedule: Q01DX009 (ip), vehicle: Klucel (hydroxypropylcellulose) (HPC)
[5] = dose: 200.0 mg/kg/injection, schedule: Q01DX009 (ip), vehicle: Klucel (hydroxypropylcellulose) (HPC)
[6] = dose: 25.0 mg/kg/injection, schedule: Q01DX009 (ip), vehicle: saline with Tween-80
[7] = dose: 50.0 mg/kg/injection, schedule: Q01DX009 (ip), vehicle: saline with Tween-80
[8] = dose: 50.0 mg/kg/injection, schedule: Q01DX009 (ip), vehicle: saline
[9] = dose: 50.0 mg/kg/injection, schedule: Q04DX003 (ip), vehicle: saline
[10] = dose: 100.0 mg/kg/injection, schedule: Q04DX003 (ip), vehicle: saline
[11] = dose: 200.0 mg/kg/injection, schedule: Q04DX003 (ip), vehicle: saline
[12] = dose: 12.5 mg/kg/injection, schedule: Q01DX009 (ip), vehicle: saline
[13] = dose: 25.0 mg/kg/injection, schedule: Q01DX009 (ip), vehicle: saline
[14] = dose: 100.0 mg/kg/injection, schedule: Q01DX009 (ip), vehicle: saline with Tween-80
[15] = dose: 200.0 mg/kg/injection, schedule: Q01DX009 (ip), vehicle: saline with Tween-80
[16] = dose: 100.0 mg/kg/injection, schedule: Q04DX003 (ip), vehicle: Klucel (hydroxypropylcellulose) (HPC)
[17] = dose: 200.0 mg/kg/injection, schedule: Q04DX003 (ip), vehicle: Klucel (hydroxypropylcellulose) (HPC)
[18] = dose: 400.0 mg/kg/injection, schedule: Q04DX003 (ip), vehicle: Klucel (hydroxypropylcellulose) (HPC)
[19] = dose: 400.0 mg/kg/injection, schedule: Q01DX009 (ip), vehicle: saline with Tween-80
[20] = dose: 100.0 mg/kg/injection, schedule: Q01DX001 (ip), vehicle: Klucel (hydroxypropylcellulose) (HPC)

Measured: T/C

O=C(OCCCCOC(=O)c1cccc([N+](=O)[O-])c1)c1cccc([N+](=O)[O-])c1
inactive: dose: 3.0 mg/kg/injection, schedule: Q04DX003 (ip), vehicle: saline with Tween-80 115 % of control | dose: 6.0 mg/kg/injection, schedule: Q04DX003 (ip), vehicle: saline with Tween-80 110 % of control | dose: 12.0 mg/kg/injection, schedule: Q04DX003 (ip), vehicle: saline with Tween-80 120 % of control

CNS(=O)(=O)c1ccc2c(c1)[nH]c(=S)n2C
inactive: [1] 95 % of control | [2] 109 % of control | [3] 100 % of control

Cc1cc2no[n+]([O-])c2cc1C
inactive: dose: 50.0 mg/kg/injection, schedule: Q01DX009 (ip), vehicle: Klucel (hydroxypropylcellulose) (HPC) 109 % of control | [4] 109 % of control | [5] 109 % of control

NC(Cc1ccc(Cl)cc1)C(=O)O (stereo not drawn)
inactive: dose: 200.0 mg/kg/injection, schedule: Q01DX010 (im), vehicle: other 90 % of control | dose: 400.0 mg/kg/injection, schedule: Q01DX010 (im), vehicle: other 90 % of control | dose: 600.0 mg/kg/injection, schedule: Q01DX010 (im), vehicle: other 90 % of control

CC(C)(C)CC(C)(C)c1ccc(O)cc1O
inactive: [6] 120 % of control | [7] 95 % of control

CC1CCCCN1CC(Cl)Cl (stereo not drawn)
active: dose: 100.0 mg/kg/injection, schedule: Q01DX009 (ip), vehicle: saline 150 % of control
inactive: [8] 122 % of control | [9] 109 % of control | [10] 104 % of control | [11] 122 % of control

CCOC(=O)C(=CN1CCCC1)C(=O)OCC
inactive: [1] 100 % of control | [2] 100 % of control | [3] 109 % of control

CN1CCC(C=C2c3ccccc3Sc3ccccc32)C1 (stereo not drawn)
inactive: dose: 6.25 mg/kg/injection, schedule: Q01DX009 (ip), vehicle: saline 99 % of control | [12] 95 % of control | [13] 100 % of control | [8] 101 % of control

O=C(O)CCC(=O)c1ccc(C2CCCCCC2)cc1
inactive: [7] 110 % of control | [14] 115 % of control | [10] 95 % of control | [15] 110 % of control | dose: 400.0 mg/kg/injection, schedule: Q04DX003 (ip), vehicle: saline 100 % of control

COc1cc(Nc2ncnc(N)c2[N+](=O)[O-])cc(OC)c1OC
inactive: dose: 100.0 mg/kg/injection, schedule: Q01DX001 (ip), vehicle: saline with Tween-80 87 % of control | dose: 400.0 mg/kg/injection, schedule: Q01DX001 (ip), vehicle: saline with Tween-80 87 % of control

COc1cc(NS(C)(=O)=O)ccc1Nc1c2cccc(C)c2nc2c(C)cccc12
active: dose: 1.57 mg/kg/injection, schedule: Q01DX009 (ip), vehicle: saline 176 % of control | dose: 3.13 mg/kg/injection, schedule: Q01DX009 (ip), vehicle: saline with Tween-80 150 % of control | dose: 3.13 mg/kg/injection, schedule: Q01DX009 (ip), vehicle: saline 201 % of control | dose: 6.25 mg/kg/injection, schedule: Q01DX009 (ip), vehicle: saline with Tween-80 169 % of control | dose: 12.5 mg/kg/injection, schedule: Q01DX009 (ip), vehicle: saline with Tween-80 186 % of control | dose: 14.6 mg/kg/injection, schedule: Q04DX003 (ip), vehicle: saline 163 % of control | dose: 22.0 mg/kg/injection, schedule: Q04DX003 (ip), vehicle: saline 163 % of control | [6] 231 % of control | dose: 33.0 mg/kg/injection, schedule: Q04DX003 (ip), vehicle: saline 159 % of control | [9] 227 % of control | [1] 272 % of control
inactive: [2] 109 % of control

O=[N+]([O-])c1cccc(C=Nc2cccc(C(F)(F)F)c2)c1
inactive: dose: 3.0 mg/kg/injection, schedule: Q01DX009 (ip), vehicle: Klucel (hydroxypropylcellulose) (HPC) 95 % of control | dose: 6.0 mg/kg/injection, schedule: Q01DX009 (ip), vehicle: Klucel (hydroxypropylcellulose) (HPC) 95 % of control | dose: 12.0 mg/kg/injection, schedule: Q01DX009 (ip), vehicle: Klucel (hydroxypropylcellulose) (HPC) 100 % of control | [16] 104 % of control | [17] 95 % of control | [18] 95 % of control

CCC(c1ccc2cc(OC)ccc2c1)C(C)(C)C(=O)F (stereo not drawn)
inactive: dose: 12.5 mg/kg/injection, schedule: Q01DX009 (ip), vehicle: Klucel (hydroxypropylcellulose) (HPC) 116 % of control | dose: 33.0 mg/kg/injection, schedule: Q01DX009 (ip), vehicle: Klucel (hydroxypropylcellulose) (HPC) 104 % of control | dose: 75.0 mg/kg/injection, schedule: Q01DX009 (ip), vehicle: Klucel (hydroxypropylcellulose) (HPC) 113 % of control

OCC1OC(n2cnc3c(SSc4ncnc5c4ncn5C4OC(CO)C(O)C4O)ncnc32)C(O)C1O (stereo not drawn)
inactive: dose: 118.0 mg/kg/injection, schedule: Q01DX010 (ip), vehicle: saline 104 % of control | dose: 178.0 mg/kg/injection, schedule: Q01DX010 (ip), vehicle: saline 104 % of control

CSc1ncc2n1C=CN(C(=O)c1ccc([N+](=O)[O-])cc1)C2O (stereo not drawn)
inactive: [12] 99 % of control | [13] 87 % of control | dose: 25.0 mg/kg/injection, schedule: Q04DX003 (ip), vehicle: saline 107 % of control | [8] 92 % of control | [9] 94 % of control | [10] 93 % of control | [11] 90 % of control

Fc1c(Cl)c(Cl)c(Cl)c(Cl)c1Cl
inactive: dose: 44.0 mg/kg/injection, schedule: Q01DX009 (ip), vehicle: other 104 % of control | dose: 66.0 mg/kg/injection, schedule: Q01DX009 (ip), vehicle: other 100 % of control | dose: 100.0 mg/kg/injection, schedule: Q01DX009 (ip), vehicle: other 95 % of control | [16] 100 % of control | dose: 150.0 mg/kg/injection, schedule: Q01DX009 (ip), vehicle: other 91 % of control | [15] 105 % of control | [17] 90 % of control | [19] 90 % of control | [18] 100 % of control

N#CC1(c2ccc(Cl)cc2)CC1
inactive: [4] 95 % of control | [16] 92 % of control | [5] 100 % of control | [17] 100 % of control

O=C(Nc1ccc(NC2=NCCN2)cc1)c1cccc(C(=O)Nc2ccc(NC3=NCCN3)cc2)c1
inactive: dose: 5.0 mg/kg/injection, schedule: Q01DX009 (ip), vehicle: saline with Tween-80 116 % of control | dose: 5.0 mg/kg/injection, schedule: Q04DX003 (ip), vehicle: saline with Tween-80 100 % of control | dose: 10.0 mg/kg/injection, schedule: Q04DX003 (ip), vehicle: saline with Tween-80 100 % of control | dose: 20.0 mg/kg/injection, schedule: Q04DX003 (ip), vehicle: saline with Tween-80 122 % of control | dose: 30.0 mg/kg/injection, schedule: Q01DX009 (ip), vehicle: saline with Tween-80 122 % of control
active: dose: 13.0 mg/kg/injection, schedule: Q01DX009 (ip), vehicle: saline with Tween-80 150 % of control

CN=C(N)c1ccc(N=C(N)c2ccc(N=C(N)c3ccc(C(N)=NC)cc3)cc2)cc1
inactive: dose: 10.0 mg/kg/injection, schedule: Q04DX003 (ip), vehicle: saline 104 % of control | dose: 20.0 mg/kg/injection, schedule: Q04DX003 (ip), vehicle: saline 104 % of control | dose: 40.0 mg/kg/injection, schedule: Q04DX003 (ip), vehicle: saline 116 % of control

CC1(c2ccc(-c3ccccc3)cc2)NC(=O)NC1=O (stereo not drawn)
inactive: [14] 91 % of control | [15] 95 % of control | [19] 88 % of control

CC1CCCC2(CN=C(Nc3ccccc3)O2)C1 (stereo not drawn)
inactive: [20] 99 % of control | dose: 200.0 mg/kg/injection, schedule: Q01DX001 (ip), vehicle: Klucel (hydroxypropylcellulose) (HPC) 114 % of control

c1ccc(C2C(c3ccnc4c3ccc3ccccc34)C(c3ccccc3)C2c2ccnc3c2ccc2ccccc23)cc1 (stereo not drawn)
inactive: dose: 25.0 mg/kg/injection, schedule: Q01DX001 (ip), vehicle: Klucel (hydroxypropylcellulose) (HPC) 93 % of control and 91 % of control | dose: 50.0 mg/kg/injection, schedule: Q01DX001 (ip), vehicle: Klucel (hydroxypropylcellulose) (HPC) 97 % of control and 100 % of control | [20] 100 % of control and 106 % of control
